Measurements from patent US20250058000A1, “Treatment of Proliferative Disorders Using Antibodies to PSMA” (Cornell University, priority 2007, published 2025).

Experiments:
prostate cancer = settings: patients after developing androgen-independence; taxane-based chemotherapy; cited from earlier work
LNCaP cells [1] = assay: Docetaxel inhibition of LNCaP cell growth at different folate concentrations (cell count); assay type: cell-based, human; settings: 10 or 20 μg/ml docetaxel for 72 hours, cells counted after 1 week; FIG. 12
Description: Docetaxel (taxotere) at concentrations of 10 or 20 μg/ml was incubated with LNCaP cells for 72 hours and at different concentrations of folate supplied in the form of folic acid from culture medium. Cells were counted after 1 week. […] The open bar is the control without treatment with docetaxel, the speckled bars are cells treated with 10 ug/ml docetaxel together with the indicated concentration of folate, and the striped bars are cells treated with 20 ug/ml docetaxel together with the indicated concentration of folate. The indicated concentrations of folate are over and above the physiological level of folate provided by the folate present in fetal calf serum (for example, 12 nm folate represents 12 nm folate above the physiological concentration). […] It is likely that decreased folate availability to cancer cells would enhance the anti-tumor effect of other cytotoxic, cytostatic and hormonal.

LNCaP cells [2] = assay: Effect of folic acid concentration on cell growth rate; assay type: cell-based, human; settings: folate level increased above physiological; FIG. 3
Excerpt: Increasing the folate level above physiological can increase the growth rate by almost 2-fold. In cell lines that express PSMA (such as LNCaP), the same growth increase is also found if folate is provided in the form of ‘natural’ or dietary folate (e.g., polyglutamated folate) which is digested to monoglutamated folate by PSMA. The latter (monoglutamated folate) can cross the cell membrane whereas polyglutamated folate cannot. Anti-PSMA Antibody, J415, Inhibits PSMA tic Activity.

[3] = test system: PSMA expression, SK-RC-39; assay: PSMA expression (J591 labeling, FACS) after three weeks in lowered-folate media; assay type: cell-based, human; settings: folate lowered to 10 nM, vs standard media, FIG. 7
Description: (§1) According to the World Health Organization, physiological level of serum folate is 12 nmol/L. Standard tissue culture media contains approx 150× the concentration of folate found in human serum/plasma. […] FIGS. 5-11 show the PSMA expression levels of different cell lines were grown for three weeks in standard media (containing 150× physiological concentration of folate; lines 2), standard media with only 50 nM folate, or standard media with only 10 nM folate. The cells were labeled with anti-PSMA antibody J591 followed by a fluorescently labeled secondary antibody that recognizes J591. Lines 1 show the cells labeled with a negative isotype control antibody followed by the labeled secondary antibody.

[4] = test system: PSMA expression, SK-RC-31; assay: as above; assay type: cell-based, human; settings: folate lowered to 10 nM, vs standard media, FIG. 5
Description: as §1

PSMA expression, PC3 = assay: as above; assay type: cell-based, human; settings: folate lowered to 50 nM or less, vs standard media, FIG. 10
Description: as §1

[5] = test system: PSMA expression, Cwr22rv1; assay: as above; assay type: cell-based, human; settings: folate lowered to 10 nM, vs standard media, FIG. 9
Description: as §1

PSMA expression, LNCaP = assay: as above; assay type: cell-based, human; settings: folate lowered in the media, FIG. 11
Description: as §1

[6] = test system: PSMA expression, SK-RC-42; assay: as above; assay type: cell-based, human; settings: folate lowered to 10-50 nM, vs standard media, FIG. 6
Description: as §1

[7] = test system: PSMA expression, SK-RC-06; assay: as above; assay type: cell-based, human; settings: folate lowered to 50 nM or less, vs standard media, FIG. 8
Description: as §1

Compound | Median survival (prostate cancer) | Cell killing/inhibition of growth depending on folate level (in words) (LNCaP cells [1]) | Increase of growth rate (LNCaP cells [2]) | Increase in PSMA expression [3] | Increase in PSMA expression [4] | Increase in PSMA expression (PSMA expression, PC3) | Increase in PSMA expression [5] | Upregulation of PSMA expression (in words) (PSMA expression, LNCaP) | Increase in PSMA expression [6] | Increase in PSMA expression [7]
CC(=O)O[C@@]12CO[C@@H]1C[C@H](O)[C@@]1(C)C(=O)[C@H](O)C3=C(C)[C@@H](OC(=O)[C@H](O)[C@@H](NC(=O)OC(C)(C)C)c4ccccc4)C[C@@](O)([C@@H](OC(=O)c4ccccc4)[C@H]21)C3(C)C [docetaxel] | 19 months | decreasing folate levels increases the cell killing/inhibition of growth |  |  |  |  |  |  |  | 
Nc1nc2ncc(CNc3ccc(C(=O)N[C@@H](CCC(=O)O)C(=O)O)cc3)nc2c(=O)[nH]1 [folate, folic acid] |  |  | ~2 fold | 250% | 250% | 400% | 950% | did not cause upregulation of PSMA expression | 650% | 225%
